Source: the supplement of paper PMC10307832

Tests used:
Test in all cases: relative viability (nuclei count vs DMSO), 5 days (fraction); higher = more cells survive
BGJ398 + AZD7762 = compound: CCN1CCN(c2ccc(Nc3cc(N(C)C(=O)Nc4c(Cl)c(OC)cc(OC)c4Cl)ncn3)cc2)CC1 [BGJ398] + NC(=O)Nc1cc(-c2cccc(F)c2)sc1C(=O)N[C@H]1CCCNC1 [AZD7762] (partner 0.2 µM)
Summary of the method: (§1)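 The day after seeding in 1536-well plates, lung cancer cell lines were treated by pin tool with a single drug, or with a fixed anchor-drug dose together with five library-drug doses (not always all listed) in √10 steps. After 5 days, a combined fix-and-stain solution (final 0.05% Triton X-100, 1% formaldehyde, 1 ug/ml Hoechst) was added. Nuclei counted on 4× images gave relative viability as treated counts over vehicle counts, reported as the median of duplicate plates.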

BGJ398 + Luminespib = compound: CCN1CCN(c2ccc(Nc3cc(N(C)C(=O)Nc4c(Cl)c(OC)cc(OC)c4Cl)ncn3)cc2)CC1 [BGJ398] + CCNC(=O)c1noc(-c2cc(C(C)C)c(O)cc2O)c1-c1ccc(CN2CCOCC2)cc1 [Luminespib] (partner 0.01 µM)
Summary of the method: as §1

[1] = compound: C1=CC2=NC=CN=C2C=C1/C=C/3\C(=O)NC(=O)S3 + COc1cccc2cc(-c3nc([C@H]4CC[C@H](C(=O)O)CC4)n4ncnc(N)c34)[nH]c12 [OSI-027] (partner 0.5 µM)
Summary of the method: as §1

BGJ398 + Lapatinib = compound: CCN1CCN(c2ccc(Nc3cc(N(C)C(=O)Nc4c(Cl)c(OC)cc(OC)c4Cl)ncn3)cc2)CC1 [BGJ398] + CS(=O)(=O)CCNCc1ccc(-c2ccc3ncnc(Nc4ccc(OCc5cccc(F)c5)c(Cl)c4)c3c2)o1 [Lapatinib] (partner 2 µM)
Summary of the method: as §1

Cell Line | relative viability (BGJ398 + AZD7762; first compound 0.01 µM) | relative viability (BGJ398 + AZD7762; first compound 0.03162 µM) | relative viability (BGJ398 + AZD7762; first compound 0.1 µM) | relative viability (BGJ398 + AZD7762; first compound 0.3162 µM) | relative viability (BGJ398 + AZD7762; first compound 1 µM) | relative viability (BGJ398 + Luminespib; first compound 0.01 µM) | relative viability (BGJ398 + Luminespib; first compound 0.03162 µM) | relative viability (BGJ398 + Luminespib; first compound 0.1 µM) | relative viability (BGJ398 + Luminespib; first compound 0.3162 µM) | relative viability (BGJ398 + Luminespib; first compound 1 µM) | relative viability ([1]; first compound 0.02 µM) | relative viability ([1]; first compound 0.06325 µM) | relative viability ([1]; first compound 0.2 µM) | relative viability ([1]; first compound 0.6325 µM) | relative viability ([1]; first compound 2 µM) | relative viability (BGJ398 + Lapatinib; first compound 0.01 µM) | relative viability (BGJ398 + Lapatinib; first compound 0.03162 µM) | relative viability (BGJ398 + Lapatinib; first compound 0.1 µM) | relative viability (BGJ398 + Lapatinib; first compound 0.3162 µM) | relative viability (BGJ398 + Lapatinib; first compound 1 µM)
NCI-H1993 | 0.953 | 0.85 | 0.593 | 0.94 | 0.803 | 0.962 | 0.916 | 1.08 | 0.954 | 0.737 | 0.494 | 0.552 | 0.551 | 0.544 | 0.475 | 0.8 | 0.825 | 0.87 | 0.935 | 0.746
NCI-H2085 | 1.04 | 0.974 | 0.948 | 0.884 | 0.963 | 0.308 | 0.485 | 0.564 | 0.498 | 0.422 | 0.75 | 0.847 | 0.82 | 0.827 | 0.635 | 0.744 | 0.784 | 0.802 | 0.677 | 0.663
NCI-H2087 | 1.13 | 1.23 | 1.23 | 1.45 | 1.5 | 0.177 | 0.186 | 0.173 | 0.203 | 0.133 | 0.42 | 0.523 | 0.615 | 0.574 | 0.37 | 0.951 | 0.975 | 1.09 | 1.17 | 0.885
NCI-H2126 | 1.08 | 1.05 | 1.05 | 1.06 | 1.03 | 0.894 | 0.973 | 0.926 | 0.891 | 0.832 | 0.627 | 0.629 | 0.735 | 0.734 | 0.363 | 0.808 | 0.765 | 0.764 | 0.785 | 0.678
NCI-H2170 | 0.906 | 0.843 | 1.01 | 0.861 | 0.912 | 0.736 | 0.811 | 0.724 | 0.795 | 1.24 | 0.714 | 0.777 | 0.729 | 0.71 | 0.679 | 0.289 | 0.197 | 0.256 | 0.268 | 0.264
NCI-H2347 | 0.811 | 0.801 | 0.837 | 0.814 | 0.851 | 0.396 | 0.666 | 0.746 | 0.471 | 0.453 | 0.505 | 0.306 | 0.412 | 0.5 | 0.276 | 0.913 | 1.02 | 0.944 | 0.926 | 0.893
NCI-H2405 | 0.84 | 0.857 | 0.781 | 0.757 | 0.656 | 0.818 | 0.807 | 0.668 | 0.758 | 0.686 | 0.644 | 0.698 | 0.648 | 0.6 | 0.225 | 1.15 | 1.32 | 1.05 | 1.07 | 0.857
NCI-H3122 | 0.51 | 1 | 1.04 | 1.02 | 1.17 | 0.0895 | 0.0973 | 0.0991 | 0.0908 | 0.0986 | 0.935 | 1.16 | 0.89 | 1.03 | 0.46 | 0.97 | 1.03 | 1.03 | 1.07 | 1.08
PC-3 [JPC-3] | 0.853 |  | 0.781 |  | 0.837 | 0.63 |  | 0.737 | 0.721 | 0.712 | 0.711 | 0.777 | 0.783 | 0.767 | 0.636 | 0.44 |  | 0.412 | 0.478 | 0.348
PC-14 | 0.403 |  | 0.387 | 0.176 | 0.249 | 0.151 |  | 0.119 |  | 0.134 | 0.771 | 0.67 | 0.815 | 0.804 | 0.692 | 0.282 | 0.255 | 0.352 | 0.251 | 0.31
RERF-LC-KJ | 0.858 | 1 | 0.987 | 0.819 | 0.295 | 1.23 | 1.25 | 1.32 | 1.26 | 1.31 | 0.571 | 0.569 | 0.704 | 0.606 | 0.332 | 0.86 | 0.88 | 0.908 | 0.924 | 0.724
